Experimental data taken from patent publication US20170190705A1, “Compositions and Methods for Inhibiting BMP” (THE BRIGHAM AND WOMAN'S HOSPITAL, INC., priority 2014, published 2017).

How the values were obtained:
Format in all cases: biochemical
LYNB = LYNB (Homo sapiens, UniProt P07948); assay: Kinome profiling LYNB; conditions: read-out: Inhibitory activity LYNB; for inhibition at 0.1 µM: 100 nM
Method: (§1) . The kinome-wide selectivity was determined following the methods previously reported by Mohedas et al., ACS Chem Biol 2013, 8, 1291-1302 and Sanvitale et al., PLoS One 2013, 8, e62721.

MARK4 = biological target: T1, MARK4 (Homo sapiens, UniProt Q96L34); assay: Kinome profiling MARK4; conditions: read-out: Inhibitory activity MARK4; for inhibition at 0.1 µM: 100 nM
T1 sequence (Q96L34 1-752): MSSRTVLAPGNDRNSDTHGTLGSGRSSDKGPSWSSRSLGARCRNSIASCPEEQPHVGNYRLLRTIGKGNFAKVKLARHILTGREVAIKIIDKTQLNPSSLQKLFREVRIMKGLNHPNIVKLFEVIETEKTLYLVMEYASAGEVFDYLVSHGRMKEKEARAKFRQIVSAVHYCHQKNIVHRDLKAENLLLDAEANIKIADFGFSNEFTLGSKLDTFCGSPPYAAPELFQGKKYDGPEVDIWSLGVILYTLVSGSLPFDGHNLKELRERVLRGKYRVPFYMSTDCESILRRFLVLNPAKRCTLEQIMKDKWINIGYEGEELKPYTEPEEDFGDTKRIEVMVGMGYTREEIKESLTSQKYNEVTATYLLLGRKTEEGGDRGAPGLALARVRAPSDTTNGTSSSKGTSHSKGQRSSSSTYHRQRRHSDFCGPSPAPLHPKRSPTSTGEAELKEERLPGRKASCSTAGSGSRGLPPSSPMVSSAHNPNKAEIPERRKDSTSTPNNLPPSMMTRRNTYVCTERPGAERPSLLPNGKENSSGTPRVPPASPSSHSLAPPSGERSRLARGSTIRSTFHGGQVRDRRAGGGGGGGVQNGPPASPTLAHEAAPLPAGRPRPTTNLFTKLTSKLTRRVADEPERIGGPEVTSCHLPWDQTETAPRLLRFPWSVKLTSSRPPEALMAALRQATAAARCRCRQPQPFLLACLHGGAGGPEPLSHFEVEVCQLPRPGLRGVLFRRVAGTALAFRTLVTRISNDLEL
Method: as §1

TEC = biological target: T2, TEC (Homo sapiens, UniProt P42680); assay: Kinome profiling TEC; conditions: read-out: Inhibitory activity TEC; for inhibition at 0.1 µM: 100 nM
T2 sequence (P42680 1-631): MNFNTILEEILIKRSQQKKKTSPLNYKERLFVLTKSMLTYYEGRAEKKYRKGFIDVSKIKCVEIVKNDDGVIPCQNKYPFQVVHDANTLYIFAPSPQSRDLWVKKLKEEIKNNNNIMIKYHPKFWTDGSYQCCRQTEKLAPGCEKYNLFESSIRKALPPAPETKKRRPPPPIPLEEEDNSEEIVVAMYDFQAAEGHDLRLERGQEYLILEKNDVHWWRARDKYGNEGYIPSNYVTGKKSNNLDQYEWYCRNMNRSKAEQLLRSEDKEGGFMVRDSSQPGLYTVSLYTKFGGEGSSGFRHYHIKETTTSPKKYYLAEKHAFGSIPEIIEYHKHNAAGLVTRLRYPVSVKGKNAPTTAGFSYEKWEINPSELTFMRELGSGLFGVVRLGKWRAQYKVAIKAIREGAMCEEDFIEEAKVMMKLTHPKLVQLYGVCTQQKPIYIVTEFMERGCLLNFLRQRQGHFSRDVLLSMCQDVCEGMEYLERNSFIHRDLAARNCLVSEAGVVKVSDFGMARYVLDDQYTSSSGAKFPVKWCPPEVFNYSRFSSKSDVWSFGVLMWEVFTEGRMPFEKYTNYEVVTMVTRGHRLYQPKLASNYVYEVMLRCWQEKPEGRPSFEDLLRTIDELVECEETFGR
Method: as §1

KIT = KIT (Homo sapiens, UniProt P10721); assay: Kinome profiling KIT; conditions: read-out: Inhibitory activity KIT; for inhibition at 0.1 µM: 100 nM
KIT, sequence (P10721 26-976): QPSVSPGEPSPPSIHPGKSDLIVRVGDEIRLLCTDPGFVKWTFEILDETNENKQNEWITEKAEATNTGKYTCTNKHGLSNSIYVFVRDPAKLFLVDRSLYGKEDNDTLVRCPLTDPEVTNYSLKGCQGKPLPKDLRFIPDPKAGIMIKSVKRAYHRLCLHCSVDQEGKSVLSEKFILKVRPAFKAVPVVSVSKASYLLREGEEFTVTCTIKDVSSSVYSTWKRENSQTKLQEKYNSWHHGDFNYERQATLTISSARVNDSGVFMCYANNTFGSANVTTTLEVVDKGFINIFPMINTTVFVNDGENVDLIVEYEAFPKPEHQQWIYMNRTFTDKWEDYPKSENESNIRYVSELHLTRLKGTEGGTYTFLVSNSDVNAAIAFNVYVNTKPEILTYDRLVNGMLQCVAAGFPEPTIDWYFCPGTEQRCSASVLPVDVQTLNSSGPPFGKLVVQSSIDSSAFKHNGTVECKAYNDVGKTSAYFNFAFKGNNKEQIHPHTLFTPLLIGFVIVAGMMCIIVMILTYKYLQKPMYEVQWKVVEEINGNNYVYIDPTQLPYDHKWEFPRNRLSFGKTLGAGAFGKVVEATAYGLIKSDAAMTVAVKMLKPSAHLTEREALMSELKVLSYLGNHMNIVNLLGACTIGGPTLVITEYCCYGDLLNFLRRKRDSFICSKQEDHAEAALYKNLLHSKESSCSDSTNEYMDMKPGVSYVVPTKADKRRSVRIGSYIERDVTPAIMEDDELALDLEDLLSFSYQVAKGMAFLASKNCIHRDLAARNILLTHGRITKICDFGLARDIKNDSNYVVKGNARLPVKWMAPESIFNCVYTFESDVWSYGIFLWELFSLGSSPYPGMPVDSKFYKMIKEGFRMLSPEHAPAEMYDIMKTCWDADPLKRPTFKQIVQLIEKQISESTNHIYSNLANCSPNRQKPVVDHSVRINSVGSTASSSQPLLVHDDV
Method: as §1

BTK = BTK (Homo sapiens, UniProt Q06187); assay: Kinome profiling BTK; conditions: read-out: Inhibitory activity BTK; for inhibition at 0.1 µM: 100 nM
BTK, sequence (Q06187 whole entry): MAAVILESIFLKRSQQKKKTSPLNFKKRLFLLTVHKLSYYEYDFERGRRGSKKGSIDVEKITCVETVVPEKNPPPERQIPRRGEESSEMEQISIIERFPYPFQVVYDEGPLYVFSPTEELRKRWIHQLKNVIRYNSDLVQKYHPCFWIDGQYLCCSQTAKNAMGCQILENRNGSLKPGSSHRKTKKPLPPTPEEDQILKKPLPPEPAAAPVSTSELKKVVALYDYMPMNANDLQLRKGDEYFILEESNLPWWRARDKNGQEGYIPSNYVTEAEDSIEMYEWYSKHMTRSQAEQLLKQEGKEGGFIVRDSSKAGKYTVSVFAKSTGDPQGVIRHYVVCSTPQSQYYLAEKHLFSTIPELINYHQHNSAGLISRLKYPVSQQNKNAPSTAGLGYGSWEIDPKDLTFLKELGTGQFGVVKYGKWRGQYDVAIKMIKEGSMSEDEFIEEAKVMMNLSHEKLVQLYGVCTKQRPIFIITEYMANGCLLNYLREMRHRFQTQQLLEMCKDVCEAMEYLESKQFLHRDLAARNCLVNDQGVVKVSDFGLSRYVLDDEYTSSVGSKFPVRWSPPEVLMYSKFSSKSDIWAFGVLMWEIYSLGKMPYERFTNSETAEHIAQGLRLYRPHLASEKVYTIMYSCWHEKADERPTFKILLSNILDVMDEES
Method: as §1

FGFR1 = FGFR1 (Homo sapiens, UniProt P11362); assay: Kinome profiling FGFR1; conditions: read-out: Inhibitory activity FGFR1; for inhibition at 0.1 µM: 100 nM
FGFR1, sequence (P11362 22-822): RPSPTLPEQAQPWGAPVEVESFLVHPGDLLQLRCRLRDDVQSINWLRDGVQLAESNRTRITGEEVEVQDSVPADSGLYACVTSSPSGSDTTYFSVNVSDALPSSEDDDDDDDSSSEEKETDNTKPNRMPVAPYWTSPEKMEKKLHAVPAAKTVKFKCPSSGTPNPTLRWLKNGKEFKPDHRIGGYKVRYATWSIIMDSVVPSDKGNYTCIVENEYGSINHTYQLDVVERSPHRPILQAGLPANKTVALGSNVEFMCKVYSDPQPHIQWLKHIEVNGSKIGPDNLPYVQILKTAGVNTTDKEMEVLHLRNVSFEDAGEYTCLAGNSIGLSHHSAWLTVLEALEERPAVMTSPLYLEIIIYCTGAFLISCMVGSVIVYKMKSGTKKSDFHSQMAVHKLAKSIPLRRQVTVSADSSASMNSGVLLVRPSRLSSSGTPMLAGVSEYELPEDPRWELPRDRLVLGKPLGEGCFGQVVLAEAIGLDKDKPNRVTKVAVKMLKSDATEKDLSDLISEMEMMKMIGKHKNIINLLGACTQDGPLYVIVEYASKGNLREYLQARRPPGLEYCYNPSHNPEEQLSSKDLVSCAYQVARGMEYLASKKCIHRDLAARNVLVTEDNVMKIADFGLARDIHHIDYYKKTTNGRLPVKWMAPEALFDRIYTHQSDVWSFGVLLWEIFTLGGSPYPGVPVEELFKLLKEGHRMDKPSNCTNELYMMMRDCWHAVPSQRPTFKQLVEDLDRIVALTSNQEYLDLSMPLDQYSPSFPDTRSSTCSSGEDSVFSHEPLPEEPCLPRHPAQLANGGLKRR
Method: as §1

PKC-γ = PKC-γ (Homo sapiens, UniProt P05129); assay: Kinome profiling PKC-γ; conditions: read-out: Inhibitory activity PKC-γ; for inhibition at 0.1 µM: 100 nM
Method: as §1

PDK1 = biological target: T3, PDK1 (Homo sapiens, UniProt O15530); assay: Kinome profiling PDK1; conditions: read-out: Inhibitory activity PDK1; for inhibition at 0.1 µM: 100 nM
T3 sequence (O15530 1-556): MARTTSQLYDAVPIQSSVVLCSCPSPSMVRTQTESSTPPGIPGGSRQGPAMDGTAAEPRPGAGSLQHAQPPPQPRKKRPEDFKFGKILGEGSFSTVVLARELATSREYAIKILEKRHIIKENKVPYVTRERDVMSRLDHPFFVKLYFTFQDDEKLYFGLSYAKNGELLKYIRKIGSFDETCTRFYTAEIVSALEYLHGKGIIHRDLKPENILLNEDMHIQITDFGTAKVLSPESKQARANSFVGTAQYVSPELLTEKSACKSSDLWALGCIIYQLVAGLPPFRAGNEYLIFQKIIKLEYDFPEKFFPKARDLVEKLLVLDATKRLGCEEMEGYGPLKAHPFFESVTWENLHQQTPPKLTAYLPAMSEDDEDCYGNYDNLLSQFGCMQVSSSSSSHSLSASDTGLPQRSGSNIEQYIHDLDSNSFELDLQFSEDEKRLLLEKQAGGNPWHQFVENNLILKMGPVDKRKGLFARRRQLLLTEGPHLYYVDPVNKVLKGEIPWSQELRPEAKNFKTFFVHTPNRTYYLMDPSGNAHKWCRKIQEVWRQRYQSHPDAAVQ
Method: as §1

MSK1 = MSK1 (Homo sapiens, UniProt O75582); assay: Kinome profiling MSK1; conditions: read-out: Inhibitory activity MSK1; for inhibition at 0.1 µM: 100 nM
MSK1, sequence (O75582 whole entry): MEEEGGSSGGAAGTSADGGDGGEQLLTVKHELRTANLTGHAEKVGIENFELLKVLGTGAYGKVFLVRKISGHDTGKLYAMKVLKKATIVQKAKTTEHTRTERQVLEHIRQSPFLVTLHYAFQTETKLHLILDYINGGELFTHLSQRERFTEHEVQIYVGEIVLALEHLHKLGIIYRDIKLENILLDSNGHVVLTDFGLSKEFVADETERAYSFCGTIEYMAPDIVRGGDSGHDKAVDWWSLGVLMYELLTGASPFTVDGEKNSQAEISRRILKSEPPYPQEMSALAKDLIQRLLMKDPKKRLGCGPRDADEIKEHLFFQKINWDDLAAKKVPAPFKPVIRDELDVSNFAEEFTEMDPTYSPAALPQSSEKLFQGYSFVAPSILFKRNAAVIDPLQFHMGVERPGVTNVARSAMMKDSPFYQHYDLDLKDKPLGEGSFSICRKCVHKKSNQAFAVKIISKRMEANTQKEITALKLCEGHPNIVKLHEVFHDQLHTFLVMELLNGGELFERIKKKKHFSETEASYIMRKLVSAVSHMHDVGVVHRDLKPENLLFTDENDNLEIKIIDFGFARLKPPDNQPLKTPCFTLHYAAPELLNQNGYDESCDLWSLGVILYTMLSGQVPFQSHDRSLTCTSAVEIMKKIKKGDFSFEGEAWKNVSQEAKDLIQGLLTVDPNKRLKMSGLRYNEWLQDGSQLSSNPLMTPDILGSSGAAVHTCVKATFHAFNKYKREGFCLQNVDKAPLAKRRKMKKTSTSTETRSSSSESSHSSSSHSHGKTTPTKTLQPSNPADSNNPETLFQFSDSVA
Method: as §1

CLK2 = CLK2 (Homo sapiens, UniProt P49760); assay: Kinome profiling CLK2; conditions: read-out: Inhibitory activity CLK2; for inhibition at 0.1 µM: 100 nM
CLK2, sequence (P49760 whole entry): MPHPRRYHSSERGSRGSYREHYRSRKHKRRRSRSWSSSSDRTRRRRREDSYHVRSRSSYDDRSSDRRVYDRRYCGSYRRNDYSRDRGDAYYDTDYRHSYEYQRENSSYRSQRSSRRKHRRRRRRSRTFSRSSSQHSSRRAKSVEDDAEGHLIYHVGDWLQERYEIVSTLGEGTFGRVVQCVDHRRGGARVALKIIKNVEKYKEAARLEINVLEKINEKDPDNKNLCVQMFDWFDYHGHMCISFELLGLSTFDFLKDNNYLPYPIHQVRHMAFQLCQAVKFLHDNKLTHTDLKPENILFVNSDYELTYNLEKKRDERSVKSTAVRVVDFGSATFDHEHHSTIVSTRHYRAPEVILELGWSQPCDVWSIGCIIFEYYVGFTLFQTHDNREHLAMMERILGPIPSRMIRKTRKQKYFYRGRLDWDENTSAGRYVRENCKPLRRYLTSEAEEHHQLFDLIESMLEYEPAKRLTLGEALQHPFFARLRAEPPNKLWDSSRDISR
Method: as §1

LYNB, sequence (P07948 1-491 isoform P07948-2): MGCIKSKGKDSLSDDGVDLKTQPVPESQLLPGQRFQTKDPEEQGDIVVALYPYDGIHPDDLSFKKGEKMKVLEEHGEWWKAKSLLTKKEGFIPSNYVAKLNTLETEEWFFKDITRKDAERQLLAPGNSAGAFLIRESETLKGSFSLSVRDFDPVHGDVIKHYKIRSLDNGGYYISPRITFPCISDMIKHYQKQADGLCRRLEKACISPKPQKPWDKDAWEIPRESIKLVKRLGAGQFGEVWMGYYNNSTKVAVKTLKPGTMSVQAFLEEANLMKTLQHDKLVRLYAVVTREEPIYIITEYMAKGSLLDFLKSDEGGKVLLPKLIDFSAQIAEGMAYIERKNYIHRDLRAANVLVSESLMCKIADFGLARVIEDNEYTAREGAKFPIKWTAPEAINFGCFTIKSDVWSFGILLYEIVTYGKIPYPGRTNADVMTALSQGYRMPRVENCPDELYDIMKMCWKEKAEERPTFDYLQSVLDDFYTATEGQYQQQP

With COc1cc(-c2cc(-c3ccc(N4CCNCC4)cc3)cnc2C)cc(OC)c1OC [Compound 10, 1-(4-(6-methyl-5-(3,4,5-trimethoxyphenyl)pyridin-3-yl)phenyl)piperazine] the inhibition at 0.1 µM (LYNB) was 8%, the inhibition at 1 µM (LYNB) was 30% and the inhibition at 0.1 µM (MARK4) was 1%. The inhibition at 1 µM (MARK4) was 2%, the inhibition at 0.1 µM (TEC) was 0% and the inhibition at 1 µM (TEC) was 0%. For the same compound, the inhibition at 0.1 µM (KIT) was 5%, the inhibition at 1 µM (KIT) was 12% and the inhibition at 0.1 µM (BTK) was 1%. The inhibition at 1 µM (BTK) was -2%, the inhibition at 0.1 µM (FGFR1) was 5% and the inhibition at 1 µM (FGFR1) was 5%. For the same compound, the inhibition at 0.1 µM (PKC-γ) was 3%, the inhibition at 1 µM (PKC-γ) was 5% and the inhibition at 0.1 µM (PDK1) was 3%. It also gave an inhibition at 1 µM (PDK1) of 6%, an inhibition at 0.1 µM (MSK1) of 1% and an inhibition at 1 µM (MSK1) of 0%. For the same compound, the inhibition at 0.1 µM (CLK2) was 2% and the inhibition at 1 µM (CLK2) was 2%.
COc1cc(-c2cc(-c3ccc(N4CCNCC4)cc3)cnc2N)cc(OC)c1OC [Compound 15, 5-(4-(piperazin-1-yl)phenyl)-3-(3,4,5-trimethoxyphenyl)pyridin-2-amine] showed an inhibition at 0.1 µM (LYNB) of 35%, an inhibition at 1 µM (LYNB) of 82% and an inhibition at 0.1 µM (MARK4) of 5%. For the same compound, the inhibition at 1 µM (MARK4) was 40%, the inhibition at 0.1 µM (TEC) was 5% and the inhibition at 1 µM (TEC) was 24%. The inhibition at 0.1 µM (KIT) was 5%, the inhibition at 1 µM (KIT) was 22% and the inhibition at 0.1 µM (BTK) was 3%. For the same compound, the inhibition at 1 µM (BTK) was 20%, the inhibition at 0.1 µM (FGFR1) was 3% and the inhibition at 1 µM (FGFR1) was 8%. The inhibition at 0.1 µM (PKC-γ) was 1%, the inhibition at 1 µM (PKC-γ) was 4% and the inhibition at 0.1 µM (PDK1) was 3%. For the same compound, the inhibition at 1 µM (PDK1) was 3%, the inhibition at 0.1 µM (MSK1) was 0% and the inhibition at 1 µM (MSK1) was 0%. For the same compound, the inhibition at 0.1 µM (CLK2) was 1% and the inhibition at 1 µM (CLK2) was -1%.
